# Where “and” joins values, the source holds several entries; their conditions need not be identical. Identical values can stand only once. Like-named read-outs stand apart in the source and are kept apart here.
# Key:
# P. aeruginosa [1] = test: MIC by broth microdilution against P. aeruginosa; assay type: cell-based, Pseudomonas aeruginosa; conditions: Pseudomonas aeruginosa, highly resistant strains
# Description: (§1) In a typical study MIC tests were performed by broth microdilution in line with CLSI susceptibility testing standards. Bacterial inocula were prepared at ca. 1×10^6 CFU/mL by diluting 100-fold a 0.5 McFarland suspension in CA-MHB with TES. Microtiter plate wells containing 50 μL of antibacterial solutions at 2×the final concentrations were diluted 2-fold with 50 μL of inoculum to give a final inoculum of ca. 5×10^5 CFU/mL and desired test concentrations of antibacterial agents. Test microtiter plates were incubated according to CLSI guidelines and read visually. MIC values corresponded to the first well with no visible growth.
# The results of antibacterial activity of amikacin, Ceftazidime-avibactam, Ceftriaxone with sulbactam and EDTA, Meropenem and Meropenem with avibactum and EDTA against highly resistant strains of P. aeruginosa are given in Table 5. As may be seen, the activity of the comparators was much lower although CRO/S4/E10 maximum MIC90 were much lower at ≤0.03 μg/mL.
# Acinetobacter baumannii = test: MIC by broth microdilution against Acinetobacter baumannii; assay type: cell-based
# Description: as §1
# The results of antibacterial activity of amikacin, Ceftazidime-avibactam, Ceftriaxone with sulbactam and EDTA, Meropenem and Meropenem with avibactum and EDTA against highly resistant strains of Acinetobacter baumannii are given in Table 7.
# Escherichia coli = test: MIC by broth microdilution against E. coli; assay type: cell-based; conditions: Escherichia coli, highly resistant strains
# Description: as §1
# The results of antibacterial activity of amikacin, Ceftazidime-avibactam, Ceftriaxone with sulbactam and EDTA, Meropenem and Meropenem with avibactam and EDTA against highly resistant strains of Escherichia coli are given in Table 3. […] There was a marked improvement in antibacterial activity, compared to MEM alone, observed for the triple combination MEM/AVI [4 mg/L]/EDTA [10 mM] with a MIC90 at 0.004 μg/mL
# K. pneumoniae [2] = test: MIC by broth microdilution against Klebsiella; assay type: cell-based, Klebsiella pneumoniae; conditions: highly resistant strains
# Description: as §1
# The results of antibacterial activity of amikacin, Ceftazidime-avibactam, Ceftriaxone with sulbactam and EDTA, Meropenem and Meropenem with avibactam and EDTA against highly resistant strains of Klebsiella (93. 3% Mem NS) are given in Table 4.
# [3] = system: all grouped isolates from India; test: MIC by broth microdilution against all grouped isolates from India; assay type: cell-based, resistant bacterial strains
# Description: as §1
# There was a marked improvement in antibacterial activity, compared to MEM alone, observed for the triple combinations, for MEM/AVI [4 mg/L]/EDTA [10 mM] and MEM/AVI [4 mg/L]/EDTA [20 mM], the reduction in MIC90 was 0.06 μg/mL and ≤0.002 μg/mL, respectively.
# [4] = system: Enterobacterales isolates from India; test: MIC by broth microdilution against Enterobacterales; assay type: cell-based, Enterobacteriaceae; conditions: n=301
# Description: as §1
# The results of antibacterial activity of amikacin, Ceftazidime-avibactam, Ceftriaxone with sulbactam and EDTA, Meropenem and Meropenem with avibactam and EDTA against highly resistant strains of Enterobacteriaceae are given in Table 2.
# [5] = system: Non-Enterobacteriaceae (non-fermenter isolates); test: MIC by broth microdilution against Non-Enterobacteriaceae; assay type: cell-based
# Description: as §1
# [6] = system: Stenotrophomonas maltophilia; test: MIC by broth microdilution against Stenotrophomonas maltophilia; assay type: cell-based; conditions: Stenotrophomonas maltophilia, highly resistant strains
# Description: as §1
# The results of antibacterial activity of amikacin, Ceftazidime-avibactam, Ceftriaxone with sulbactam and EDTA, Meropenem and Meropenem with avibactum and EDTA against highly resistant strains of Stenotrophomonas maltophilia are given in Table 8.
# Enterobacterales = test: MIC profile of EDTA, Enterobacterales; assay type: cell-based; conditions: n = 40
# Description: (§2) Objective: The in-vitro activity of ethylenediaminetetraacetic acid (EDTA) was tested in cation-adjusted Mueller Hinton broth (CA-MHB) and MHB against a panel of Gram-negative clinical isolates from India.
# (§3) Method: A total of 80 isolates including ATCC strains and non-duplicate clinically relevant Escherichia coli (n=20), Klebsiella pneumoniae (n=20), Pseudomonas aeruginosa (n=21) and Acinetobacter baumannii (n=19) characterized isolates were selected prior to susceptibility testing. The clinical isolates were collected from hospitalized patients from tertiary care medical centers in India. Isolates were tested for susceptibility to different test concentrations of EDTA (1.25, 2.5, 5, 10, 20, 40, 80 mM) in CA-MHB media and MHB by broth microdilution.
# E. coli = test: MIC profile of EDTA, E. coli; assay type: cell-based, Escherichia coli; conditions: for MIC50 / MIC90 / MIC: Escherichia coli, n = 20
# Description: as §2, §3
# P. aeruginosa [7] = test: MIC profile of EDTA, P. aeruginosa; assay type: cell-based, Pseudomonas aeruginosa; conditions: for MIC: CA-MHB
# Description: as §2, §3
# All isolates (n = 80) = test: MIC profile of EDTA, all tested isolates; assay type: cell-based, Gram-negative clinical isolates
# Description: as §2, §3
# Non-fermenters = test: MIC profile of EDTA, non-fermenters; assay type: cell-based; conditions: n = 40; for MIC: CA-MHB
# Description: as §2, §3
# K. pneumoniae [8] = test: MIC profile of EDTA, K. pneumoniae; assay type: cell-based, Klebsiella pneumoniae
# Description: as §2, §3
# A. baumannii = test: MIC profile of EDTA, A. baumannii; assay type: cell-based, Acinetobacter baumannii
# Description: as §2, §3
compound,measurement,setting,value
NCC[C@H](O)C(=O)N[C@@H]1C[C@H](N)[C@@H](O[C@H]2O[C@H](CN)[C@@H](O)[C@H](O)[C@H]2O)[C@H](O)[C@H]1O[C@H]1O[C@H](CO)[C@@H](O)[C@H](N)[C@H]1O [Amikacin],MIC50,P. aeruginosa [1],> 64 µg/mL
same,MIC90,P. aeruginosa [1]; read-out: MIC90,> 64 µg/mL
same,MIC90,Acinetobacter baumannii; Acinetobacter baumannii,> 64 µg/mL
same,MIC50,"Acinetobacter baumannii; Acinetobacter baumannii, highly resistant strains",> 64 µg/mL
same,MIC90,Acinetobacter baumannii; highly resistant strains,>64 µg/mL
same,MIC50,Escherichia coli; read-out: MIC50,8 µg/mL
same,MIC90,Escherichia coli; read-out: MIC90,> 64 µg/mL
same,MIC50,"K. pneumoniae [2]; Klebsiella pneumoniae, read-out: MIC50",> 64 µg/mL
same,MIC90,"K. pneumoniae [2]; Klebsiella pneumoniae, read-out: MIC90",> 64 µg/mL
same,MIC90,K. pneumoniae [2],>64 µg/mL
same,MIC50,[3],> 64 µg/mL
same,MIC90,[3],> 64 µg/mL
same,MIC90,[3]; all grouped isolates (606),> 64 µg/mL
same,MIC90,[4],>64 µg/mL
same,MIC50,[4]; read-out: MIC50,> 64 µg/mL
same,MIC90,[4]; read-out: MIC90,> 64 µg/mL
same,MIC50,[5],> 64 µg/mL
same,MIC90,[5],> 64 µg/mL
same,MIC90,[5]; highly resistant strains,>64 µg/mL
same,MIC50,[6]; read-out: MIC50,> 64 µg/mL
same,MIC90,[6]; read-out: MIC90,> 64 µg/mL
"O=C(O)CN(CCN(CC(=O)O)CC(=O)O)CC(=O)O [EDTA, N,N′-(Ethane-1,2-diyl)bis[N-(carboxymethyl)glycine]]",MIC50,Enterobacterales; CA-MHB,40 mM
same,MIC90,Enterobacterales; CA-MHB,> 80 mM and >80 mM
same,MIC,"Enterobacterales; CA-MHB, read-out: MIC MAX",> 80 mM
same,MIC,"Enterobacterales; CA-MHB, read-out: MIC MIN",2.5 mM
same,MIC50,Enterobacterales; MHB,10 mM
same,MIC90,Enterobacterales; MHB,80 mM
same,MIC,"Enterobacterales; MHB, read-out: MIC MAX",> 80 mM
same,MIC,"Enterobacterales; MHB, read-out: MIC MIN",≤ 1.25 mM
same,MIC50,E. coli; CA-MHB,10 mM
same,MIC90,E. coli; CA-MHB,80 mM
same,MIC,"E. coli; CA-MHB, read-out: MIC MAX",> 80 mM
same,MIC,"E. coli; CA-MHB, read-out: MIC MIN",2.5 mM
same,MIC50,E. coli; MHB,2.5 mM
same,MIC90,E. coli; MHB,20 mM
same,MIC,"E. coli; MHB, read-out: MIC MAX",80 mM
same,MIC,"E. coli; MHB, read-out: MIC MIN",≤ 1.25 mM
same,"MIC50 and MIC90 in MHB, fold lower to CA-MHB",E. coli; MHB vs CA-MHB,4 fold
same,MIC50,"P. aeruginosa [7]; MHB, n = 21",10 mM
same,MIC90,"P. aeruginosa [7]; MHB, n = 21",20 mM
same,MIC MAX,"P. aeruginosa [7]; MHB, n = 21",20 mM
same,MIC MIN,"P. aeruginosa [7]; MHB, n = 21",≤1.25 mM
same,MIC50,P. aeruginosa [7]; Pseudomonas aeruginosa,10 mM
same,MIC90,P. aeruginosa [7]; Pseudomonas aeruginosa,20 mM
same,MIC,"P. aeruginosa [7]; Pseudomonas aeruginosa, n = 21, read-out: MIC MAX",20 mM
same,MIC,"P. aeruginosa [7]; Pseudomonas aeruginosa, n = 21, read-out: MIC MIN",≤ 1.25 mM
same,MIC50,All isolates (n = 80); CA-MHB,10 mM
same,MIC90,All isolates (n = 80); CA-MHB,> 80 mM and >80 mM
same,MIC,"All isolates (n = 80); CA-MHB, read-out: MIC MAX",> 80 mM
same,MIC,"All isolates (n = 80); CA-MHB, read-out: MIC MIN",≤ 1.25 mM
same,MIC50,All isolates (n = 80); MHB,2.5 mM
same,MIC90,All isolates (n = 80); MHB,80 mM
same,MIC MAX,All isolates (n = 80); MHB,>80 mM
same,MIC MIN,All isolates (n = 80); MHB,≤1.25 mM
same,MIC,Non-fermenters; read-out: MIC MAX,20 mM
same,MIC,Non-fermenters; read-out: MIC MIN,≤ 1.25 mM
same,MIC MAX,Non-fermenters; MHB,20 mM
same,MIC MIN,Non-fermenters; MHB,≤1.25 mM
same,MIC90,"K. pneumoniae [8]; CA-MHB, n = 20",>80 mM
same,MIC50,K. pneumoniae [8]; Klebsiella pneumoniae,80 mM
same,MIC90,"K. pneumoniae [8]; Klebsiella pneumoniae, CA-MHB, n = 20",> 80 mM
same,MIC,"K. pneumoniae [8]; Klebsiella pneumoniae, CA-MHB, n = 20, read-out: MIC MAX",> 80 mM
same,MIC,"K. pneumoniae [8]; Klebsiella pneumoniae, CA-MHB, n = 20, read-out: MIC MIN",20 mM
same,MIC90,"K. pneumoniae [8]; Klebsiella pneumoniae, MHB, n = 20",80 mM
same,MIC,"K. pneumoniae [8]; Klebsiella pneumoniae, MHB, n = 20, read-out: MIC MAX",> 80 mM
same,MIC,"K. pneumoniae [8]; Klebsiella pneumoniae, MHB, n = 20, read-out: MIC MIN",5 mM
same,MIC in MHB compared to CA-MHB,K. pneumoniae [8]; MHB vs CA-MHB,almost similar to CA-MHB
same,MIC50,"K. pneumoniae [8]; MHB, n = 20",80 mM
same,MIC,"A. baumannii; Acinetobacter baumannii, read-out: MICs",≤ 1.25 mM
same,MIC50,"A. baumannii; Acinetobacter baumannii, CA-MHB, n = 19, read-out: MIC50",≤ 1.25 mM
same,MIC90,"A. baumannii; Acinetobacter baumannii, CA-MHB, n = 19, read-out: MIC90",≤ 1.25 mM
same,MIC,"A. baumannii; Acinetobacter baumannii, CA-MHB, n = 19, read-out: MIC MAX",≤ 1.25 mM
same,MIC,"A. baumannii; Acinetobacter baumannii, CA-MHB, n = 19, read-out: MIC MIN",≤ 1.25 mM
same,MIC50,"A. baumannii; MHB, n = 19",≤1.25 mM
same,MIC90,"A. baumannii; MHB, n = 19",≤1.25 mM
same,MIC MAX,"A. baumannii; MHB, n = 19",≤1.25 mM
same,MIC MIN,"A. baumannii; MHB, n = 19",≤1.25 mM

# From patent US20260294871A1, “PHARMACEUTICAL COMBINATIONS AND COMPOSITIONS THEREOF COMPRISING ANTIBACTERIAL AGENTS” (priority 2023, published 2026)
